Earlier results, collected in patent US20120083452A1, “Topical Anesthetic Uses of Szeto-Schiller Peptides” (priority 2010, published 2012).
Square brackets hold non-standard residues; d marks the D form. Ends that are not written are not given here. Dmt = Cc1cc(O)cc(C)c1C[C@H](N)C(=O)O

Assays:
mice = mice studies
LDL = conditions: compared with SS-02
[1] = compared with SS-02
isolated mitochondria = conditions: for MPP+-induced inhibition of oxygen consumption: MPP+ (1-methyl-4-phenylpyridium)

## D-Arg-2′,6′-Dmt-Lys-Phe-NH2 ([dR][Dmt]KF-NH2) [SS-31]
mice
  treatment of Parkinson's Disease (PD) or Amyotrophic Lateral Sclerosis (ALS): may be effective
LDL
  inhibiting LDL oxidation: as effective as SS-02
[1]
  scavenging H2O2: as effective as SS-02
Isolated mitochondria
  MPP+-induced inhibition of ATP production: prevented
  MPP+-induced mitochondrial swelling: prevented
  MPP+-induced inhibition of oxygen consumption: prevented

## Phe-D-Arg-Phe-Lys-NH2 (F[dR]FK-NH2; N-terminus assumed; SMILES N=C(N)NCCC[C@@H](NC(=O)[C@@H](N)Cc1ccccc1)C(=O)N[C@@H](Cc1ccccc1)C(=O)N[C@@H](CCCCN)C(N)=O) [SS-20]
mice
  treatment of Parkinson's Disease (PD) or Amyotrophic Lateral Sclerosis (ALS): may be effective
[1]
  scavenging H2O2: eliminated the scavenging ability
Isolated mitochondria
  MPP+-induced inhibition of ATP production: prevented
  MPP+-induced mitochondrial swelling: prevented
  MPP+-induced inhibition of oxygen consumption: prevented
